ChEMBL document CHEMBL1201862, “PubChem BioAssay data set” (2004)
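Where inhibition never reached the appropriate level, the endpoint shown equals the highest concentration tested. Otherwise, values were interpolated linearly from a five-concentration, 48-hour dose response in 96-well plates. The concentration for 50% growth inhibition is given as GI50.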 Calls of active or inactive are those of the source. Cut-off read from the data, not from the text of the source: active = GI50 up to about 1.1 µM and inactive = higher.

Legend:
Assay in all cases: NCI anticancer screen, dose series, 48 h
CAKI-1 = tested on: CAKI-1
TK-10 = tested on: TK-10
KM12 = tested on: KM12
UO-31 = tested on: UO-31
HCC 2998 = tested on: HCC 2998
UACC-62 = tested on: UACC-62
NCI-H23 = tested on: NCI-H23
MCF7 = tested on: MCF7
OVCAR-3 = tested on: OVCAR-3
LOX IMVI = tested on: LOX IMVI
SF-268 = tested on: SF-268
BT-549 = tested on: BT-549
MOLT-4 = tested on: MOLT-4
SK-MEL-28 = tested on: SK-MEL-28
HT-29 = tested on: HT-29
NCI-H226 = tested on: NCI-H226
MDA-N = tested on: MDA-N
COLO 205 = tested on: COLO 205
OVCAR-4 = tested on: OVCAR-4
NCI-H522 = tested on: NCI-H522
HL-60 = tested on: HL-60
DU-145 = tested on: DU-145
NCI-H460 = tested on: NCI-H460
HCT-15 = tested on: HCT-15
Malme-3M = tested on: Malme-3M
SN12C = tested on: SN12C
A498 = tested on: A498
IGROV-1 = tested on: IGROV-1
MDA-MB-435 = tested on: MDA-MB-435
OVCAR-5 = tested on: OVCAR-5
SK-MEL-5 = tested on: SK-MEL-5
SR = tested on: SR
HCT-116 = tested on: HCT-116
K562 = tested on: K562
T47D = tested on: T47D
RXF 393 = tested on: RXF 393
MDA-MB-231 = tested on: MDA-MB-231
OVCAR-8 = tested on: OVCAR-8
PC-3 = tested on: PC-3
U-251 = tested on: U-251
SF-295 = tested on: SF-295
RPMI-8226 = tested on: RPMI-8226
ACHN = tested on: ACHN
EKVX = tested on: EKVX
HOP-62 = tested on: HOP-62
786-0 = tested on: 786-0
Hs-578T = tested on: Hs-578T
SW-620 = tested on: SW-620
SNB-19 = tested on: SNB-19
SK-MEL-2 = tested on: SK-MEL-2
SNB-75 = tested on: SNB-75
UACC-257 = tested on: UACC-257
NCI/ADR-RES = tested on: NCI/ADR-RES
SK-OV-3 = tested on: SK-OV-3
M14 = tested on: M14
CCRF-CEM = tested on: CCRF-CEM
HOP-92 = tested on: HOP-92

**Q.** Which results are given for `Cc1cccc(-n2c(C)nc3ccc(NC4OC(CO)C(O)C(O)C4O)cc3c2=O)c1` (stereo not given)?
**A.** GI50 (CAKI-1): > 100 µM (inactive); GI50 (TK-10): > 100 µM (inactive); GI50 (KM12): > 100 µM (inactive); GI50 (UO-31): > 100 µM (inactive); GI50 (HCC 2998): > 100 µM (inactive); GI50 (UACC-62): > 100 µM (inactive); GI50 (NCI-H23): > 100 µM (inactive); GI50 (MCF7): > 100 µM (inactive); GI50 (OVCAR-3): > 100 µM (inactive); GI50 (LOX IMVI): > 100 µM (inactive); GI50 (SF-268): > 100 µM (inactive); GI50 (BT-549): > 100 µM (inactive); GI50 (MOLT-4): > 100 µM (inactive); GI50 (SK-MEL-28): > 100 µM (inactive); GI50 (HT-29): > 100 µM (inactive); GI50 (NCI-H226): > 100 µM (inactive); GI50 (MDA-N): > 100 µM (inactive); GI50 (COLO 205): > 100 µM (inactive); GI50 (OVCAR-4): > 100 µM (inactive); GI50 (NCI-H522): > 100 µM (inactive); GI50 (HL-60): > 100 µM (inactive); GI50 (DU-145): > 100 µM (inactive); GI50 (NCI-H460): > 100 µM (inactive); GI50 (HCT-15): > 100 µM; GI50 (Malme-3M): > 100 µM (inactive); GI50 (SN12C): > 100 µM (inactive); GI50 (A498): > 100 µM (inactive); GI50 (IGROV-1): > 100 µM (inactive); GI50 (MDA-MB-435): > 100 µM (inactive); GI50 (OVCAR-5): > 100 µM (inactive); GI50 (SK-MEL-5): > 100 µM (inactive); GI50 (SR): 50.7 µM (inactive); GI50 (HCT-116): > 100 µM (inactive); GI50 (K562): > 100 µM (inactive); GI50 (T47D): > 100 µM (inactive); GI50 (RXF 393): > 100 µM (inactive); GI50 (MDA-MB-231): > 100 µM (inactive); GI50 (OVCAR-8): > 100 µM (inactive); GI50 (PC-3): > 100 µM (inactive); GI50 (U-251): > 100 µM (inactive); GI50 (SF-295): > 100 µM (inactive); GI50 (RPMI-8226): > 100 µM (inactive); GI50 (ACHN): > 100 µM (inactive); GI50 (EKVX): > 100 µM (inactive); GI50 (HOP-62): > 100 µM (inactive); GI50 (786-0): > 100 µM (inactive); GI50 (Hs-578T): > 100 µM (inactive); GI50 (SW-620): > 100 µM (inactive); GI50 (SNB-19): > 100 µM (inactive); GI50 (SK-MEL-2): 61 µM (inactive); GI50 (SNB-75): > 100 µM (inactive); GI50 (UACC-257): > 100 µM (inactive); GI50 (NCI/ADR-RES): > 100 µM (inactive)

**Q.** Which results are given for `Cc1[nH]c(=O)nc(S)c1C(=O)NC1C2CCCCC2NC2CCCCC21` (stereo not given)?
**A.** GI50 (CAKI-1): 17.2 µM (inactive); GI50 (TK-10): 16.5 µM (inactive); GI50 (KM12): 16.1 µM (inactive); GI50 (UO-31): 13.8 µM (inactive); GI50 (HCC 2998): 25 µM (inactive); GI50 (UACC-62): 4.09 µM (inactive); GI50 (NCI-H23): 14.4 µM (inactive); GI50 (SK-OV-3): > 10 µM (inactive); GI50 (MCF7): 17 µM (inactive); GI50 (OVCAR-3): 16 µM (inactive); GI50 (LOX IMVI): 27 µM (inactive); GI50 (BT-549): 16.4 µM (inactive); GI50 (MOLT-4): 14.3 µM (inactive); GI50 (M14): 14.2 µM (inactive); GI50 (SK-MEL-28): 11.2 µM (inactive); GI50 (HT-29): 21.4 µM (inactive); GI50 (NCI-H226): 17.3 µM (inactive); GI50 (MDA-N): 11.5 µM (inactive); GI50 (COLO 205): 20.5 µM (inactive); GI50 (OVCAR-4): 18.3 µM (inactive); GI50 (HL-60): > 100 µM (inactive); GI50 (DU-145): 11.8 µM (inactive); GI50 (NCI-H460): 14.4 µM (inactive); GI50 (CCRF-CEM): 14.8 µM (inactive); GI50 (HCT-15): 10.9 µM; GI50 (Malme-3M): 24.1 µM (inactive); GI50 (SN12C): 19.8 µM (inactive); GI50 (A498): 18.3 µM (inactive); GI50 (IGROV-1): 15.7 µM (inactive); GI50 (MDA-MB-435): 6.93 µM (inactive); GI50 (OVCAR-5): 18.4 µM (inactive); GI50 (SK-MEL-5): 18.9 µM (inactive); GI50 (SR): 28.6 µM (inactive); GI50 (HCT-116): 15.1 µM (inactive); GI50 (K562): 4.57 µM (inactive); GI50 (T47D): 7.59 µM (inactive); GI50 (RXF 393): 13.5 µM (inactive); GI50 (MDA-MB-231): 14.9 µM (inactive); GI50 (OVCAR-8): 15.1 µM (inactive); GI50 (PC-3): 13.2 µM (inactive); GI50 (U-251): 13.9 µM (inactive); GI50 (SF-295): 17.2 µM (inactive); GI50 (RPMI-8226): 26.4 µM (inactive); GI50 (HOP-62): 17.3 µM (inactive); GI50 (Hs-578T): 23.4 µM (inactive); GI50 (SW-620): 18.1 µM (inactive); GI50 (SNB-19): 15.6 µM (inactive); GI50 (SK-MEL-2): 17.4 µM (inactive); GI50 (HOP-92): 18.5 µM (inactive); GI50 (SNB-75): 16.7 µM (inactive); GI50 (UACC-257): 16.3 µM (inactive); GI50 (NCI/ADR-RES): 17.7 µM (inactive)
